Test results reported in the NIST ThermoML archive (doi:10.1021/je101250d).
“And” between values parts separate entries of the source, which are not always exact repeats. Equal values may be shown once.

How the values were obtained:
[1] = Liquid; for mass density: 298.15 K, 101.33 kPa, Vibrating tube method
[2] = Boiling temperature at pressure P; details: 101.33 kPa; Liquid; Ebulliometric method (Recirculating still)
[3] = refractive index (Na D-line) (dimensionless); details: 298.15 K; 101.33 kPa; Liquid; Standard Abbe refractometry

CCC(C)(C)OC [2-methoxy-2-methylbutane]
Details	Boiling temperature at pressure P [°C]	mass density [kg/m3]	refractive index
[1]	–	765.83	–
[2]	86.37	–	–
[3]	–	–	1.38712

[1]
Details	vapor or sublimation pressure [kPa]
313.44 K	20.01
318.99 K	25.01
323.68 K	30.01
327.77 K	35.01
331.41 K	40.01
334.69 K	45.01
337.64 K	50
337.66 K	50
337.69 K	50.01
340.46 K	55.01
343.03 K	60.01
345.89 K	66.01
348.97 K	73.01
349.73 K	75
349.8 K	75
351.84 K	80.01
354.52 K	87.01
356.92 K	94
357.02 K	94.01
357.04 K	94
359.95 K	102.73

CCCCCCC [heptane]
Details	Boiling temperature at pressure P [°C]	mass density [kg/m3]	refractive index
[1]	–	679.55	–
[2]	98.4	–	–
[3]	–	–	1.38668

[1]
Details	vapor or sublimation pressure
319.06 K	16.01 kPa
329.07 K	24.01 kPa
334.91 K	30.01 kPa
339.08 K	35.01 kPa
342.78 K	40.01 kPa
346.14 K	45.01 kPa
349.19 K	50.01 kPa and 50 kPa
349.24 K	50 kPa
352.01 K	55.01 kPa
354.63 K	60.01 kPa
357.1 K	65.01 kPa
359.42 K	70.01 kPa
361.59 K	75.01 kPa
361.6 K	75 kPa
361.66 K	75 kPa
363.67 K	80.01 kPa
366.41 K	87.01 kPa
368.98 K	94 kPa
368.99 K	94.01 kPa
369.04 K	94 kPa
371.63 K	101.74 kPa

CCC(C)O (stereo not given) [butan-2-ol]
Details	mass density [kg/m3]	refractive index
[1]	802.98	–
[3]	–	1.39676

[1]
Details	vapor or sublimation pressure [kPa]
334.83 K	20.01
339.42 K	25.01
343.31 K	30.01
346.69 K	35.01
349.69 K	40.01
352.38 K	45.01
354.84 K	50.01
354.91 K	50
355.12 K	50
357.11 K	55.01
359.21 K	60.01
361.55 K	66.01
364.08 K	73.01
364.8 K	75
365.2 K	75
366.4 K	80.01
368.58 K	87.01
370.61 K	94.01
370.66 K	94
371.17 K	94
